Source: PubChem BioAssay (NCI)
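How tested: cells in 96-well plates exposed to compound for 48 hours at five concentrations. TGI marks complete inhibition of growth.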

Tests used:
Test in all cases: growth of human tumour cells (NCI), 48 h
[1] = system: SK-OV-3 ovarian
[2] = system: K-562 leukemia
[3] = system: A549 NSCLC
[4] = system: SK-MEL-5 melanoma
[5] = system: EKVX NSCLC
[6] = system: RPMI-8226 leukemia
[7] = system: MDA-N
[8] = system: OVCAR-3 ovarian
[9] = system: SF-539 CNS
[10] = system: OVCAR-4 ovarian
[11] = system: MCF7 breast
[12] = system: CAKI-1 renal
[13] = system: PC-3 prostate
[14] = system: T-47D breast
[15] = system: SW-620 colon
[16] = system: SR leukemia
[17] = system: HT29 colon
[18] = system: NCI-H23 lung
[19] = system: IGROV1 ovarian
[20] = system: DU-145 prostate
[21] = system: SNB-75 CNS
[22] = system: M14 melanoma
[23] = system: OVCAR-5 ovarian
[24] = system: TK-10 renal
[25] = system: SN12C renal
[26] = system: HS 578T breast
[27] = system: HCT-15 colon
[28] = system: UO-31 renal
[29] = system: HCC-2998 colon
[30] = system: LOX IMVI melanoma
[31] = system: KM12 colon
[32] = system: UACC-257 melanoma
[33] = system: HOP-62 NSCLC
[34] = system: NCI/ADR-RES ovarian
[35] = system: SF-268 CNS
[36] = system: NCI-H522 lung
[37] = system: CCRF-CEM leukemia
[38] = system: RXF 393 renal
[39] = system: NCI-H226 lung
[40] = system: MDA-MB-435
[41] = system: SNB-19 CNS
[42] = system: COLO 205 colon
[43] = system: SF-295 CNS
[44] = system: HL-60(TB) leukemia
[45] = system: SK-MEL-28 melanoma
[46] = system: MALME-3M melanoma
[47] = system: MDA-MB-231 breast
[48] = system: NCI-H460 lung
[49] = system: HCT-116 colon
[50] = system: SK-MEL-2 melanoma
[51] = system: 786-0 renal
[52] = system: HOP-92 NSCLC
[53] = system: MOLT-4 leukemia
[54] = system: ACHN renal
[55] = system: A498 renal
[56] = system: UACC-62 melanoma
[57] = system: U251 CNS
[58] = system: OVCAR-8 ovarian
[59] = system: BT-549 breast

CC(C)(C)C(O)CC(O)(C(F)(F)F)C(F)(F)F (stereo unspecified)
TGI [1]: > 100 µM
TGI [2]: > 100 µM
TGI [3]: > 100 µM
TGI [4]: > 100 µM
TGI [5]: > 100 µM
TGI [6]: > 100 µM
TGI [7]: > 100 µM
TGI [8]: > 100 µM
TGI [9]: > 100 µM
TGI [10]: > 100 µM
TGI [11]: > 100 µM
TGI [12]: > 100 µM
TGI [13]: > 100 µM
TGI [14]: > 100 µM
TGI [15]: > 100 µM
TGI [16]: > 100 µM
TGI [17]: > 100 µM
TGI [18]: > 100 µM
TGI [19]: > 100 µM
TGI [20]: > 100 µM
TGI [21]: > 100 µM
TGI [22]: > 100 µM
TGI [23]: > 100 µM
TGI [24]: > 100 µM
TGI [25]: > 100 µM
TGI [26]: > 100 µM
TGI [27]: > 100 µM
TGI [28]: > 100 µM
TGI [29]: > 100 µM
TGI [30]: > 100 µM
TGI [31]: > 100 µM
TGI [32]: > 100 µM
TGI [33]: > 100 µM
TGI [34]: > 100 µM
TGI [35]: > 100 µM
TGI [36]: > 100 µM
TGI [37]: > 100 µM
TGI [38]: > 100 µM
TGI [39]: > 100 µM
TGI [40]: > 100 µM
TGI [41]: > 100 µM
TGI [42]: > 100 µM
TGI [43]: > 100 µM
TGI [44]: > 100 µM
TGI [45]: > 100 µM
TGI [46]: > 100 µM
TGI [47]: > 100 µM
TGI [48]: > 100 µM
TGI [49]: > 100 µM
TGI [50]: > 100 µM
TGI [51]: > 100 µM
TGI [52]: > 100 µM
TGI [53]: > 100 µM
TGI [54]: > 100 µM
TGI [55]: > 100 µM
TGI [56]: > 100 µM
TGI [57]: > 100 µM
TGI [58]: > 100 µM

CC(C)=CC1C(COC(=O)c2ccccc2Cl)C1(C)C (stereo unspecified)
TGI [2]: > 100 µM
TGI [3]: > 100 µM
TGI [4]: 65.3 µM
TGI [5]: 92.6 µM
TGI [7]: > 100 µM
TGI [8]: 75.8 µM
TGI [10]: > 100 µM
TGI [12]: > 100 µM
TGI [13]: > 100 µM
TGI [14]: > 100 µM
TGI [15]: > 100 µM
TGI [16]: > 100 µM
TGI [17]: > 100 µM
TGI [18]: > 100 µM
TGI [19]: 57.6 µM
TGI [59]: 95.1 µM
TGI [20]: > 100 µM
TGI [22]: > 100 µM
TGI [23]: > 100 µM
TGI [24]: > 100 µM
TGI [25]: > 100 µM
TGI [26]: 60.1 µM
TGI [27]: 75.4 µM
TGI [28]: > 100 µM
TGI [30]: 38.9 µM
TGI [31]: 99.1 µM
TGI [32]: > 100 µM
TGI [33]: > 100 µM
TGI [34]: > 100 µM
TGI [35]: > 100 µM
TGI [36]: 49.5 µM
TGI [37]: > 100 µM
TGI [38]: 65.6 µM
TGI [39]: 82.2 µM
TGI [40]: > 100 µM
TGI [41]: > 100 µM
TGI [43]: > 100 µM
TGI [44]: 67.7 µM
TGI [45]: > 100 µM
TGI [46]: 70.3 µM
TGI [47]: > 100 µM
TGI [48]: > 100 µM
TGI [49]: > 100 µM
TGI [50]: > 100 µM
TGI [51]: > 100 µM
TGI [52]: 86.3 µM
TGI [53]: > 100 µM
TGI [54]: > 100 µM
TGI [55]: > 100 µM
TGI [56]: > 100 µM
TGI [57]: 90.2 µM
TGI [58]: > 100 µM

N#Cc1sc2c(c1OC(=O)c1ccc(Cl)cc1)c(=O)n(-c1ccccc1)c(=S)n2-c1ccccc1
TGI [1]: 91.4 µM
TGI [2]: > 100 µM
TGI [3]: > 100 µM
TGI [4]: 38.8 µM
TGI [5]: 49.2 µM
TGI [6]: 45.3 µM
TGI [7]: 55.1 µM
TGI [8]: 64.2 µM
TGI [9]: 44 µM
TGI [10]: 76.7 µM
TGI [11]: 84.2 µM
TGI [12]: 60.3 µM
TGI [13]: 80.2 µM
TGI [14]: > 100 µM
TGI [15]: 46.9 µM
TGI [16]: 75.9 µM
TGI [17]: 76.3 µM
TGI [18]: 65.8 µM
TGI [19]: 40.5 µM
TGI [20]: > 100 µM
TGI [21]: > 100 µM
TGI [22]: 50.8 µM
TGI [23]: 68.2 µM
TGI [24]: 88.7 µM
TGI [25]: 54 µM
TGI [26]: 56.2 µM
TGI [27]: 35.4 µM
TGI [29]: 52.2 µM
TGI [30]: 37.3 µM
TGI [31]: 32.5 µM
TGI [32]: > 100 µM
TGI [33]: 82.7 µM
TGI [34]: 73.2 µM
TGI [35]: 97.7 µM
TGI [36]: 5.29 µM
TGI [37]: 31.2 µM
TGI [38]: 50.7 µM
TGI [39]: 86.7 µM
TGI [40]: 52.5 µM
TGI [41]: 61.4 µM
TGI [42]: 38.1 µM
TGI [43]: 65.9 µM
TGI [44]: 46.6 µM
TGI [45]: 47.2 µM
TGI [46]: 54.4 µM
TGI [47]: 97 µM
TGI [48]: 33.3 µM
TGI [49]: 44.3 µM
TGI [51]: 63.6 µM
TGI [52]: 66.7 µM
TGI [53]: 68.7 µM
TGI [54]: 86.8 µM
TGI [55]: 57.2 µM
TGI [56]: 35.6 µM
TGI [57]: 38.6 µM
TGI [58]: 67.1 µM
